Data from patent US12410162B2, “Pyrazole acylhydrazone containing trifluoromethylthiadiazole units, preparation method and use thereof” (NANTONG UNIVERSITY, priority 2020, dated 2025).

What follows are compounds tested on Mycosphaerella melonis (assay: Screening of bactericidal activity against Mycosphaerella melonis (toxic medium method)). Conditions: test concentration 200 μg/mL, 24-26° C. in the dark.
Format: cell-based
Protocol: Screening of the Bactericidal Activity of the Samples Against Mycosphaerella melonis The toxic medium method was used to determine the antibacterial activity of the target against Mycosphaerella melonis. First the drug solution was added to the culture medium, then the bacterial cake was placed on the culture medium, the petri dish was placed in a 24-26° C. incubator in the dark, and then cultured at a constant temperature. Then according to the growth rate of pathogenic bacteria, when the diameter of the control was to about 8 cm, the antibacterial rate % was calculated. The test concentration was 200 μg/mL (the drug solution with other concentrations was obtained by diluting the drug solution with the concentration of 200 μg/mL).

In order of rising “Mycosphaerella melonis (inhibition ratio, %)” value:
1. Cc1nn(C)c(Oc2ccc(F)cc2F)c1C=NNC(=O)c1snnc1C(F)(F)F [Ic]  90%
2. Cc1nn(C)c(Oc2ccc(Cl)cc2Cl)c1C=NNC(=O)c1snnc1C(F)(F)F [Id]  100%
3. Cc1nn(C)c(Oc2cccc(Cl)c2)c1C=NNC(=O)c1snnc1C(F)(F)F [Ia]  100%
4. Cc1nn(C)c(Oc2cccc(Br)c2)c1C=NNC(=O)c1snnc1C(F)(F)F [Ib]  100%
